Target: HPK1 (Homo sapiens (Human), UniProt Q92918)
Assay: HPK1 Inhibition Assay (ADP-Glo kinase assay)
Type: biochemical
Conditions: ATP 10 μM
Description: A stock solution of 10 mM test compound was prepared in DMSO. The compound was prepared by 5-fold and 10-point serial dilutions with HPK1 kinase assay buffer. The HPK1 kinase assay buffer contained 40 mM Tris, pH 7.5; 20 mM MgCl2, 0.1 mg/ml BSA, and 50 μM DTT. 7.5 ng/μl of Active HPK1 (Promega, V4098) and 0.1 μg/ml MBP substrate protein were added to the reaction system. The final concentration of ATP in the HPK1 kinase reaction system was 10 μM. Serial diluted compounds were transferred to the reaction system and incubated at room temperature for 1 hr. 5 μL of ADP-Glo™ Reagent (Promega, V9101) was added and incubated for 40 min to stop the kinase reaction and deplete the unconsumed ATP. […] The luminescence was measured with a plate-reading luminometer.

Chain of HPK1 (Q92918 1-346 limits assumed): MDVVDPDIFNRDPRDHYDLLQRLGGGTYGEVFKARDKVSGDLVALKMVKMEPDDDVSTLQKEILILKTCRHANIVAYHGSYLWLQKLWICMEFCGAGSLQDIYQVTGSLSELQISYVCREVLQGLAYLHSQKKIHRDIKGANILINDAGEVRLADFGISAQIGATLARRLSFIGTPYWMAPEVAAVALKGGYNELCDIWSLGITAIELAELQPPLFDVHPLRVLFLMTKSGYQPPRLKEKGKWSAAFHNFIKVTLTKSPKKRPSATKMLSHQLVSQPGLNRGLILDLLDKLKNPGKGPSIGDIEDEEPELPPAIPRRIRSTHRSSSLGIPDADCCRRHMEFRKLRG

IC50 [nM] | Compound
< 100 | CC(C)c1nc2c(N3CC(N)C(O)C3)c(NC(=O)c3ccc(=O)n(-c4c(F)cccc4F)n3)ccc2n1C (centres unmarked) [Example 142, N-(4-(3-amino-4-hydroxypyrrolidin-1-yl)-2-isopropyl-1-methyl-1H-benzo[d]imidazol-5-yl)-1-(2,6-difluorophenyl)-6-oxo-1,6-dihydropyridazine-3-carboxamide]
< 100 | Cc1nc2c(N3CC[C@H](O)C3)c(NC(=O)c3ccc(=O)n(-c4c(F)cccc4F)n3)ccc2n1C [Example 82, (S)-1-(2,6-difluorophenyl)-N-(4-(3-hydroxypyrrolidin-1-yl)-1,2-dimethyl-1H-benzo[d]imidazol-5-yl)-6-oxo-1,6-dihydropyridazine-3-carboxamide]
< 100 | C[C@@H]1CN(c2c(NC(=O)c3ccc(=O)n(-c4c(F)cccc4F)n3)ccc3c2cnn3C2CCOCC2)C[C@@H]1N [Example 261, N-(4-((3R,4R)-3-amino-4-methylpyrrolidin-1-yl)-1-(tetrahydro-2H-pyran-4-yl)-1H-indazol-5-yl)-1-(2,6-difluorophenyl)-6-oxo-1,6-dihydropyridazine-3-carboxamide]
< 100 | COCCn1c(C)nc2c(N3CC[C@H](N)C3)c(NC(=O)c3ccnc(-c4c(F)cccc4OC)c3F)ccc21 [Example 11, N-(4-((S)-3-aminopyrrolidin-1-yl)-1-(2-methoxyethyl)-2-methyl-1H-benzo[d]imidazol-5-yl)-3-fluoro-2-(2-fluoro-6-methoxyphenyl)isonicotinamide]
< 100 | C[C@@H]1CN(c2c(NC(=O)c3ccc(=O)n(-c4c(F)cccc4F)n3)ccc3c2cnn3[C@@H]2CCCOC2)C[C@@H]1N [Example 252, N-(4-((3R,4R)-3-amino-4-methylpyrrolidin-1-yl)-1-((R)-tetrahydro-2H-pyran-3-yl)-1H-indazol-5-yl)-1-(2,6-difluorophenyl)-6-oxo-1,6-dihydropyridazine-3-carboxamide]
< 100 | C[C@@H]1CN(c2c(NC(=O)c3ccc(=O)n(-c4c(F)cccc4F)n3)ccc3nn(C4CCC(F)(F)CC4)cc23)C[C@@H]1N [Example 332, N-(4-((3R,4R)-3-amino-4-methylpyrrolidin-1-yl)-2-(4,4-difluorocyclohexyl)-2H-indazol-5-yl)-1-(2,6-difluorophenyl)-6-oxo-1,6-dihydropyridazine-3-carboxamide]
< 100 | CC(C)n1ncc2c(N3C[C@H]4CNC[C@H]4C3)c(NC(=O)c3ccc(=O)n(-c4c(F)cccc4F)n3)cc(F)c21 [Example 219, 1-(2,6-difluorophenyl)-N-(7-fluoro-4-((3aR,6aS)-hexahydropyrrolo[3,4-c]pyrrol-2(1H)-yl)-1-isopropyl-1H-indazol-5-yl)-6-oxo-1,6-dihydropyridazine-3-carboxamide]
< 100 | CC(C)n1cc2c(N3C[C@@H](C)[C@@H](N)C3)c(NC(=O)c3ccc(=O)n(-c4c(F)cccc4F)n3)ccc2n1 [Example 224, N-(4-((3R,4R)-3-amino-4-methylpyrrolidin-1-yl)-2-isopropyl-2H-indazol-5-yl)-1-(2,6-difluorophenyl)-6-oxo-1,6-dihydropyridazine-3-carboxamide]
< 100 | CC(C)C(C)(C)n1cc2c(N3C[C@@H](C)[C@@H](N)C3)c(NC(=O)c3ccc(=O)n(-c4c(F)cccc4F)n3)ccc2n1 [Example 247, N-(4-((3R,4R)-3-amino-4-methylpyrrolidin-1-yl)-2-(2,3-dimethylbutan-2-yl)-2H-indazol-5-yl)-1-(2,6-difluorophenyl)-6-oxo-1,6-dihydropyridazine-3-carboxamide]
< 100 | Cn1c(C(C)(C)C)nc2c(N3CC[C@@H](O)C3)c(NC(=O)c3ccc(=O)n(-c4c(F)cccc4F)n3)ccc21 [Example 102, (R)-N-(4-(2-tert-butyl)-4-(3-hydroxypyrrolidin-1-yl)-1-methyl-1H-benzo 112 midazolezol-5-yl)-1-(2,6-difluorophenyl)-6-oxo-1,6-dihydropyridazine-3-carboxamide]
< 100 | Cn1c(C(F)F)nc2c(N3CC[C@@H](N)C3)c(NC(=O)c3ccc(=O)n(-c4c(F)cccc4F)n3)ccc21 [Example 159, (R)-N-(4-(3-aminopyrrolidin-1-yl)-2-(difluoromethyl)-1-methyl-1H-benzo[d]imidazol-5-yl)-1-(2,6-difluorophenyl)-6-oxo-1,6-dihydropyridazine-3-carboxamide]
< 100 | Cn1c(C(C)(C)F)nc2c(N3CC[C@@H](N)C3)c(NC(=O)c3ccc(=O)n(-c4c(F)cccc4F)n3)ccc21 [Example 155]
< 100 | CC(C)n1cc2c(N3C[C@H](N)C4(CC4)C3)c(NC(=O)c3ccc(=O)n(-c4c(F)cccc4F)n3)ccc2n1 [Example 229]
< 100 | C[C@H]1CN(c2c(NC(=O)c3ccc(=O)n(-c4c(F)cccc4F)n3)ccc3c2cnn3[C@@H]2CCOC2)C[C@@H]1N [Example 259, N-(4-((3R,4S)-3-amino-4-methylpyrrolidin-1-yl)-1-((R)-tetrahydrofuran-3-yl)-1H-indazol-5-yl)-1-(2,6-difluorophenyl)-6-oxo-1,6-dihydropyridazine-3-carboxamide]
< 100 | COCCn1cc2c(N3CC[C@@H](N)C3)c(NC(=O)c3ccc(=O)n(-c4c(F)cccc4F)n3)ccc2n1 [Example 328, (R)-N-(4-(3-aminopyrrolidin-1-yl)-2-(2-methoxyethyl)-2H-indazol-5-yl)-1-(2,6-difluorophenyl)-6-oxo-1,6-dihydropyridazine-3-carboxamide]
< 100 | C[C@]1(N)CCN(c2cc(-c3cnccc3C#N)ccc2NC(=O)c2ccc(=O)n(-c3c(F)cccc3F)n2)C1 [Example 348, (S)-N-(2-(3-amino-3-methylpyrrolidin-1-yl)-4-(4-cyanopyridin-3-yl)phenyl)-1-(2,6-difluorophenyl)-6-oxo-1,6-dihydropyridazine-3-carboxamide]
< 100 | CC(C)n1nnc2c(N3C[C@@H](C)[C@@H](N)C3)c(NC(=O)c3ccc(=O)n(-c4c(F)cccc4F)n3)ccc21 [Example 341, N-(4-((3R,4R)-3-amino-4-methylpyrrolidin-1-yl)-1-isopropyl-1H-benzo[d][1,2,3]triazol-5-yl)-1-(2,6-difluorophenyl)-6-oxo-1,6-dihydropyridazine-3-carboxamide]
< 100 | C[C@H]1CN(c2c(NC(=O)c3ccc(=O)n(-c4c(F)cccc4F)n3)ccc3nn(C(C)(C)C)cc23)C[C@@H]1N [Example 238, N-(4-((3R,4S)-3-amino-4-methylpyrrolidin-1-yl)-2-(tert-butyl)-2H-indazol-5-yl)-1-(2,6-difluorophenyl)-6-oxo-1,6-dihydropyridazine-3-carboxamide]
< 100 | C[C@H]1CN(c2c(NC(=O)c3ccc(=O)n(-c4c(F)cccc4F)n3)ccc3nn([C@H]4CCOC4)cc23)C[C@@H]1N [Example 327, N-(4-((3R,4S)-3-amino-4-methylpyrrolidin-1-yl)-2-((S)-tetrahydrofuran-3-yl)-2H-indazol-5-yl)-1-(2,6-difluorophenyl)-6-oxo-1,6-dihydropyridazine-3-carboxamide]
< 100 | CCn1ncc2c(N3CC[C@@H](N)C3)c(NC(=O)c3ccc(=O)n(-c4c(F)cccc4F)n3)ccc21 [Example 292, (R)-N-(4-(3-aminopyrrolidin-1-yl)-1-ethyl-1H-indazol-5-yl)-1-(2,6-difluorophenyl)-6-oxo-1,6-dihydropyridazine-3-carboxamide]

From patent US20250122174A1 (Shenzhen Yuanli Shenwan Innovative Medicine Co., Ltd., priority 2022, published 2025)
